Patent US5667825A (Kellogg Company, priority 1996, dated 1997)
“Also recorded” adds a separate entry of the source.

Experiments:
[1] = Oxidative stability of iron fortified cereals in hot room (hexanal, rancid odor, off odor); assay type: physicochemical; conditions: for Off Odor Value / Rancid Odor Value / Hexanal Value: measured at two and four weeks (interval of value not stated); for Hexanal Value: ± 95% confidence interval
Protocol: The feasibility of using other iron sources was also tested. […] The individual tests are discussed in further detail below.
These samples were used for comparative stability and sensory analysis.
In order to test the stability of the iron fortified cereals, the R-T-E cereal samples prepared using four different sources of iron were placed in a hot room and exposed to a temperature of 100° F. over a four week period. Measurements were taken at two and four week intervals.

Sprague Dawley rats = assay: Rat hemoglobin regeneration method, relative iron bioavailability (modified AOAC); assay type: in vivo
Protocol: The relative iron availability of various iron compounds in a ready-to-eat breakfast cereal was tested using a widely accepted method, commonly referred to as the rat hemoglobin regeneration method, (modified AOAC method for assessment of relative iron bioavailability), see Williams, S. ed. Official methods of analysis of the Association of Official Analytical Chemists, 14th ed. Arlington, Va. AOAC, 1984; Fritz, J. C. et al., Collaborative Study of rat hemoglobin repletion test for bioavailability of iron, AOAC 1974, 57: 513-517. The testing for relative bioavailability of the various iron compounds was carried out in a series of separate experiments. In each of these experiments, ferrous sulfate was used as the standard or control compound.
Sprague Dawley rats, individually housed in temperature and light controlled units, were fed an iron deficient diet obtained from Harland Tekland Laboratories for 24 days. After this iron depletion phase, the rats were weighed and blood was drawn to test for baseline hemoglobin concentrations. These anemic animals, with hemoglobin levels between […], were then randomly assigned to the control and test groups. Ferrous sulfate and the iron compounds in the cereal were added at concentrations of 6 and 18 and 24 mg iron/kg to the control and test diets. These diets were then fed to groups of ten animals, ad libitum, for 14 days. Iron levels in the diets, were verified by atomic absorption spectrometry (Bolin et al., J. Assoc. Off. Anal. Chem. 1977, 60: 1170-1174). After the 14 day test period, hemoglobin concentrations were determined for all animals.
The bioavailability of each iron source tested relative to ferrous sulfate, was calculated by comparing gain in hemoglobin with the iron concentration in the diet by the slope ratio procedure (Finney, D. J., Statistical methods in biological assay. 2nd ed. 1964; Amine et L., Biological assessment of available iron in food products, J. Agric. Food Chem. 1974, 22: 470-476.). […]

[2] = in some diets; cited from earlier work

Compound | Stability in continuing stability tests ([1]; expected in continuing tests) | Oxidative stability (rancid odor, off odor, hexanal), result in words ([1]; hot room 100° F., four weeks) | Off Odor Value ([1]; hot room 100° F.) | Rancid Odor Value ([1]; hot room 100° F.) | Hexanal Value ([1]; hot room 100° F.) | Slope Value (gain in hemoglobin vs iron concentration in the diet) (Sprague Dawley rats; 6, 18 and 24 mg iron/kg diet, 14 days, ± 95% confidence interval) | Iron bioavailability / absorption, result in words (Sprague Dawley rats; anemic rats, versus ferrous sulfate and reduced iron) | Bioavailability versus FeSO4 complex [2] | Slope Ratio (bioavailability relative to ferrous sulfate) (Sprague Dawley rats; rat, in vivo, 20160 min)
O=C([O-])CN(CCN(CC(=O)[O-])CC(=O)[O-])CC(=O)[O-].[Fe+3].[Na+] [Ferric EDTA, sodium ferric ethylenediaminetetraacetic acid complex] | expected to improve in stability in comparison to the other ferric samples tested | statistically significant lower level of rancid odor, off odor and hexanal value; also recorded: most stable of the products tested with the lowest hexanal, rancid odor and off odor values | 0.78 ± 0.44 | 0.56 ± 0.43 | 0.40 ± 0.22 | 0.31 ± 0.03 | absorbed at a rate not significantly different from ferrous sulphate and significantly better than reduced iron; also recorded: superior in bioavailability to reduced iron | two to three times more bioavailable | 
O=C([O-])/C=C/C(=O)[O-].[Fe+2] [Ferrous Fumarate, ferrous fumarate, reference compound] |  |  | 2.67 ± 0.41 | 2.89 ± 0.62 | 2.37 ± 1.00 |  |  |  | 
ferrous sulfate [reference compound] |  |  | 2.33 ± 0.48 | 1.22 ± 0.57 | 2.13 ± 2.02 |  |  |  | 1.00
